Laboratory results published in US9884842B2, “Combretastatin analogs” (The Board of Trustees of the University of Arkansas, priority 2013, dated 2018).

These compounds were tested on NCI-H23 (assay: NCI growth inhibition and cytotoxicity screen, Lung Cancer panel). Settings: Homo sapiens, NCI-H23, read-out: LC50.

SMILES | CC50 [µM]
COc1cc(OC)cc(/C(C#N)=C/c2c[nH]c3ccccc23)c1 [Formula (I)(b)] | > 100

These compounds were tested on COLO 205 (assay: NCI growth inhibition and cytotoxicity screen, Colon Cancer panel). Settings: Homo sapiens, COLO 205.

SMILES | GI50 [nM]
COc1cc(OC)cc(/C(C#N)=C/c2c[nH]c3ccccc23)c1 [Formula (I)(b)] | 47.7

Same assay, conditions: Homo sapiens, COLO 205, read-out: LC50

SMILES | CC50 [µM]
COc1cc(OC)cc(/C(C#N)=C/c2c[nH]c3ccccc23)c1 [Formula (I)(b)] | 15.2

These compounds were tested on HCT-116 in the same assay as above. Settings: Homo sapiens, HCT-116.

SMILES | GI50 [nM]
COc1cc(OC)cc(/C(C#N)=C/c2c[nH]c3ccccc23)c1 [Formula (I)(b)] | 42.5

Same assay, conditions: Homo sapiens, HCT-116, read-out: LC50

SMILES | CC50 [µM]
COc1cc(OC)cc(/C(C#N)=C/c2c[nH]c3ccccc23)c1 [Formula (I)(b)] | > 100

Each compound was assayed on HCT-15 in the same assay as above. Settings: Homo sapiens, HCT-15.

SMILES | GI50 [nM]
COc1cc(OC)cc(/C(C#N)=C/c2c[nH]c3ccccc23)c1 [Formula (I)(b)] | 53.5

Same assay, conditions: Homo sapiens, HCT-15, read-out: LC50

SMILES | CC50 [µM]
COc1cc(OC)cc(/C(C#N)=C/c2c[nH]c3ccccc23)c1 [Formula (I)(b)] | > 100

These compounds were tested on HT29 in the same assay as above. Settings: Homo sapiens, HT-29.

SMILES | GI50 [nM]
COc1cc(OC)cc(/C(C#N)=C/c2c[nH]c3ccccc23)c1 [Formula (I)(b)] | 38.4

Same assay, conditions: Homo sapiens, HT-29, read-out: LC50

SMILES | CC50 [µM]
COc1cc(OC)cc(/C(C#N)=C/c2c[nH]c3ccccc23)c1 [Formula (I)(b)] | > 100

The compounds below were run on KM12 in the same assay as above. Settings: Homo sapiens, KM12.

SMILES | GI50 [nM]
COc1cc(OC)cc(/C(C#N)=C/c2c[nH]c3ccccc23)c1 [Formula (I)(b)] | 40.9

Same assay, conditions: Homo sapiens, KM12, read-out: LC50

SMILES | CC50 [µM]
COc1cc(OC)cc(/C(C#N)=C/c2c[nH]c3ccccc23)c1 [Formula (I)(b)] | > 100

The compounds below were run on CAKI-1 (assay: NCI growth inhibition and cytotoxicity screen, Renal Cancer panel). Settings: Homo sapiens, CAKI-1.

SMILES | GI50 [nM]
COc1cc(OC)cc(/C(C#N)=C/c2c[nH]c3ccccc23)c1 [Formula (I)(b)] | 35

Same assay, conditions: Homo sapiens, CAKI-1, read-out: LC50

SMILES | CC50 [µM]
COc1cc(OC)cc(/C(C#N)=C/c2c[nH]c3ccccc23)c1 [Formula (I)(b)] | > 100

These compounds were tested on RXF 393 in the same assay as above. Settings: Homo sapiens, RXF 393.

SMILES | GI50 [nM]
COc1cc(OC)cc(/C(C#N)=C/c2c[nH]c3ccccc23)c1 [Formula (I)(b)] | 83.7

Same assay, conditions: Homo sapiens, RXF 393, read-out: LC50

SMILES | CC50 [µM]
COc1cc(OC)cc(/C(C#N)=C/c2c[nH]c3ccccc23)c1 [Formula (I)(b)] | > 100

These compounds were tested on UO-31 in the same assay as above. Settings: Homo sapiens, UO-31.

SMILES | GI50 [nM]
COc1cc(OC)cc(/C(C#N)=C/c2c[nH]c3ccccc23)c1 [Formula (I)(b)] | > 100

Same assay, conditions: Homo sapiens, UO-31, read-out: LC50

SMILES | CC50 [µM]
COc1cc(OC)cc(/C(C#N)=C/c2c[nH]c3ccccc23)c1 [Formula (I)(b)] | > 100

What follows are compounds tested on MCF7 (assay: NCI growth inhibition and cytotoxicity screen, Breast Cancer panel). Settings: Homo sapiens, MCF7.

SMILES | GI50 [nM]
COc1cc(OC)cc(/C(C#N)=C/c2c[nH]c3ccccc23)c1 [Formula (I)(b)] | 41.4

Same assay, conditions: Homo sapiens, MCF7, read-out: LC50

SMILES | CC50 [µM]
COc1cc(OC)cc(/C(C#N)=C/c2c[nH]c3ccccc23)c1 [Formula (I)(b)] | > 100

These compounds were tested on HS 578T in the same assay as above. Settings: Homo sapiens.

SMILES | GI50 [nM]
COc1cc(OC)cc(/C(C#N)=C/c2c[nH]c3ccccc23)c1 [Formula (I)(b)] | > 100

Same assay, conditions: Homo sapiens, read-out: LC50

SMILES | CC50 [µM]
COc1cc(OC)cc(/C(C#N)=C/c2c[nH]c3ccccc23)c1 [Formula (I)(b)] | > 100

The compounds below were run on OVCAR-8 (assay: NCI growth inhibition and cytotoxicity screen, Ovarian Cancer panel). Settings: Homo sapiens, OVCAR-8.

SMILES | GI50 [nM]
COc1cc(OC)cc(/C(C#N)=C/c2c[nH]c3ccccc23)c1 [Formula (I)(b)] | > 100

Same assay, conditions: Homo sapiens, OVCAR-8, read-out: LC50

SMILES | CC50 [µM]
COc1cc(OC)cc(/C(C#N)=C/c2c[nH]c3ccccc23)c1 [Formula (I)(b)] | > 100

The compounds below were run on NCI/ADR-RES in the same assay as above. Settings: Homo sapiens.

SMILES | GI50 [nM]
COc1cc(OC)cc(/C(C#N)=C/c2c[nH]c3ccccc23)c1 [Formula (I)(b)] | 33.3

Same assay, conditions: Homo sapiens, read-out: LC50

SMILES | CC50 [µM]
COc1cc(OC)cc(/C(C#N)=C/c2c[nH]c3ccccc23)c1 [Formula (I)(b)] | > 100

These compounds were tested on PC-3 (assay: NCI growth inhibition and cytotoxicity screen, Prostate Cancer panel). Settings: Homo sapiens, PC-3.

SMILES | GI50 [nM]
COc1cc(OC)cc(/C(C#N)=C/c2c[nH]c3ccccc23)c1 [Formula (I)(b)] | 75.5

Same assay, conditions: Homo sapiens, PC-3, read-out: LC50

SMILES | CC50 [µM]
COc1cc(OC)cc(/C(C#N)=C/c2c[nH]c3ccccc23)c1 [Formula (I)(b)] | > 100
